Results from EPA's ToxRefDB 2.

What was measured:
[1] = system: rat; conditions: Fertility (Segment I), sprague dawley, Oral, Gavage/Intubation, dose end: 1 generation, group: parental
[2] = system: dog; conditions: Sub-acute repeat dose toxicity, beagle, Oral, Gavage/Intubation, dose end: 14 day, group: systemic
[3] = system: rat; conditions: Fertility (Segment I); sprague dawley; Oral; Gavage/Intubation; dose end: 1 generation; group: parental; systemic / in life observation / body weight / body weight gain + systemic / in life observation / clinical signs / anogenital staining
[4] = system: dog; conditions: Subchronic oral toxicity in nonrodent, beagle, Gavage/Intubation, dose end: 92 day, group: systemic
[5] = system: rat; conditions: Sub-acute repeat dose toxicity, sprague dawley, Oral, Gavage/Intubation, dose end: 14 day, group: systemic
[6] = system: rabbit; conditions: Sub-acute repeat dose toxicity, new zealand white, Oral, Gavage/Intubation, dose end: 5 day, group: systemic
[7] = system: rat; conditions: Subchronic oral toxicity in rodents, sprague dawley, Gavage/Intubation, dose end: 90 day, group: systemic
[8] = system: mouse; conditions: Carcinogenicity, b6c3f1, Oral, Gavage/Intubation, dose end: 2 year, group: systemic
[9] = system: rat; conditions: Carcinogenicity, fischer, Oral, Gavage/Intubation, dose end: 2 year, group: systemic
[10] = system: rat; conditions: Subchronic oral toxicity in rodents, fischer, Gavage/Intubation, dose end: 13 week, group: systemic
[11] = system: mouse; conditions: Subchronic oral toxicity in rodents, b6c3f1, Gavage/Intubation, dose end: 13 week, group: systemic
[12] = systemic / in life observation / clinical signs / anogenital staining + systemic / in life observation / clinical signs / salivation
[13] = systemic / clinical chemistry / [other] / [other] + systemic / clinical chemistry / hepatic mixed function oxidase (mfo) assay / hepatic …
[14] = systemic / in life observation / clinical signs / abnormal feces
[15] = systemic / clinical chemistry / albumin / albumin + systemic / in life observation / clinical signs / erythema + systemic / clinical …
[16] = systemic / clinical chemistry / [other] / [other] + systemic / clinical chemistry / cytochrome p450, nos / cytochrome p450, nos + systemic…
[17] = systemic / in life observation / body weight / body weight + systemic / in life observation / clinical signs / abnormal feces + systemic / …
[18] = systemic / in life observation / mortality / mortality + systemic / in life observation / body weight / body weight + systemic / in life …
[19] = systemic / in life observation / clinical signs / salivation + systemic / pathology microscopic / bone / proliferation
[20] = systemic / in life observation / clinical signs / salivation + systemic / pathology microscopic / bone / proliferation + systemic / …
[21] = systemic / pathology microscopic / stomach / hyperplasia
[22] = systemic / pathology microscopic / stomach / papilloma + systemic / pathology microscopic / stomach / hyperplasia
[23] = systemic / pathology microscopic / spleen / leukemia mononuclear
[24] = systemic / pathology microscopic / spleen / leukemia mononuclear + systemic / pathology microscopic / stomach / papilloma + systemic / …
[25] = systemic / in life observation / mortality / mortality + systemic / pathology microscopic / brain / degeneration + systemic / pathology …
[26] = systemic / in life observation / mortality / mortality + systemic / in life observation / body weight / body weight + systemic / pathology …

Work on `O=C(NO)C1(NS(=O)(=O)c2ccc(Oc3ccc(F)cc3)cc2)CCOCC1` yielded an LEL ([1]; systemic / in life observation / clinical signs / anogenital staining) of 50 mg/kg/day, an LOAEL [1, 12] of over 1000 mg/kg/day and an NEL [1, 12] of 10 mg/kg/day. For the same molecule, the NOAEL [1, 12] was at least 1000 mg/kg/day, the LOAEL [2, 13] was over 400 mg/kg/day and the NOAEL [2, 13] was at least 400 mg/kg/day. It also gave an LEL [2, 14] of 10 mg/kg/day, an NEL [2, 14] of under 10 mg/kg/day and an LEL [3] of 1000 mg/kg/day. It also gave an LOAEL [3] of over 1000 mg/kg/day, an NEL [3] of 50 mg/kg/day and an NOAEL [3] of at least 1000 mg/kg/day. The NEL ([4]; systemic / clinical chemistry / albumin / albumin + systemic / in life observation / clinical signs / erythema) was 10 mg/kg/day, the LOAEL [4, 15] was over 400 mg/kg/day and the NOAEL [4, 15] was at least 400 mg/kg/day. The LEL ([4]; systemic / in life observation / clinical signs / erythema + systemic / clinical chemistry / albumin / albumin + systemic / clinical …) was 100 mg/kg/day, the LOAEL [5, 16] was over 1000 mg/kg/day and the NOAEL [5, 16] was at least 1000 mg/kg/day. It also gave an LEL ([5]; systemic / in life observation / clinical signs / salivation) of 50 mg/kg/day, an NEL ([5]; systemic / in life observation / clinical signs / salivation + systemic / in life observation / clinical signs / urine staining - perineum…) of 10 mg/kg/day and an LEL [6, 17] of 60 mg/kg/day. It also gave an NEL [6, 17] of under 60 mg/kg/day, an LOAEL [6, 18] of over 600 mg/kg/day and an NOAEL [6, 18] of at least 600 mg/kg/day. It also gave an LEL [7, 19] of 10 mg/kg/day, an NEL [7, 19] of under 10 mg/kg/day and an LOAEL [7, 20] of over 1000 mg/kg/day. It also gave an NOAEL [7, 20] of at least 1000 mg/kg/day.

Molecule `O=Cc1ccccc1` [Benzaldehyde] has an LOAEL [8, 21] of over 400 mg/kg/day, an NOAEL [8, 21] of at least 400 mg/kg/day and an LEL [8, 22] of 300 mg/kg/day. For the same molecule, the NEL [8, 22] was under 300 mg/kg/day, the LEL [9, 23] was 200 mg/kg/day and the NEL [9, 23] was under 200 mg/kg/day. It also gave an LOAEL [9, 24] of over 400 mg/kg/day, an NOAEL [9, 24] of at least 400 mg/kg/day and an LEL ([10]; systemic / in life observation / mortality / mortality) of 400 mg/kg/day. For the same molecule, the LOAEL [10, 25] was over 800 mg/kg/day, the NEL [10, 25] was 200 mg/kg/day and the NOAEL [10, 25] was at least 800 mg/kg/day. It also gave an NEL ([11]; systemic / in life observation / body weight / body weight + systemic / in life observation / mortality / mortality + systemic / pathology …) of 300 mg/kg/day, an LEL ([11]; systemic / in life observation / body weight / body weight + systemic / pathology microscopic / kidney / degeneration) of 600 mg/kg/day and an LOAEL [11, 26] of over 1200 mg/kg/day. The NOAEL [11, 26] was at least 1200 mg/kg/day.
